Each structure is given as a SMILES string. Activity calls are given as the source filed them.

The target of data set [1] is T1, Cytochrome P450 2D6 (Homo sapiens, UniProt P10635).
In data set [2] the target is T2, Cytochrome P450 2C19 (Homo sapiens, UniProt P33261).
The target in data set [3] is T3, Cytochrome P450 1A2 (Homo sapiens, UniProt P05177).
T3 sequence (P05177 whole entry): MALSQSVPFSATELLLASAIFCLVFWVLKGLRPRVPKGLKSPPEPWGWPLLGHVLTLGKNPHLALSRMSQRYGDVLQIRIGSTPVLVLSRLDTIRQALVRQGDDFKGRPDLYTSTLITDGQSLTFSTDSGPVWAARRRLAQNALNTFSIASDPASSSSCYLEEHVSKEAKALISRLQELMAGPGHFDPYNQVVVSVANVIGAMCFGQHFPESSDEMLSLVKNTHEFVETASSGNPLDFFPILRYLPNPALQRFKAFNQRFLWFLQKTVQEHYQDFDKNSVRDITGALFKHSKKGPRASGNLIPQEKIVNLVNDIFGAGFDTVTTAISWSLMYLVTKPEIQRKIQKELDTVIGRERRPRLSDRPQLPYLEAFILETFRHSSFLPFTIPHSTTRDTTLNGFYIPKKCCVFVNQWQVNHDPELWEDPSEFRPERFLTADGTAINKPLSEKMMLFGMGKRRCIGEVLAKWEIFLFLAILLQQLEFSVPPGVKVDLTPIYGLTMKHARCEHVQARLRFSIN

In data set [4] the target is T4, Cytochrome P450 2C9 (Homo sapiens, UniProt P11712).
Data set [5] deals with T5, Cytochrome P450 3A4 (Homo sapiens, UniProt P08684). Briefly: Inhibition of CYP3A4 in human liver microsomes using testosterone as substrate in presence of NADPH by LC-MS/MS analysis. The data set is classed as ADME.
Data set [6] addresses T4, Cytochrome P450 2C9. This is another data set of the same source.
Data set [7] concerns the target T5, Cytochrome P450 3A4.
Data set [8] can be described thus: Thermodynamic solubility of the compound in PBS at pH 7.4 after 24 hrs by liquid chromatography-chemiluminescence nitrogen detection assay. It counts as physicochemical. As to conditions: read-out: Therm_solubility.
The test system of data set [9] is Mus musculus. Briefly: Increase in body weight in human HT1080 tumor bearing nude NCR mouse cachexia model at 25 to 50 mg/kg administered via oral gavage twice per day for 5 consecutive days measured up to 20 days. The data set is classed as functional, organism-based.
In data set [10] the target is T5, Cytochrome P450 3A4. Briefly: Time dependent inhibition of CYP3A4 in human liver microsomes assessed as substrate AUC shift using testosterone as substrate. It counts as ADME. More on the design: scale not given: the % may be the effect or the level left.
The target in data set [11] is T3, Cytochrome P450 1A2. In words: Time dependent inhibition of CYP1A2 in human liver microsomes assessed as substrate AUC shift. It counts as ADME. More on the design: scale not given: the % may be the effect or the level left.
Data set [12] is described as follows: Protein binding in mouse plasma at 5 uM after 4 hrs by rapid equilibrium dialysis based LC-MS/MS analysis. It counts as ADME, cell-free. Particulars: read-out: PPB (converted).
Data set [13] in a line: Volume of distribution at steady state in Beagle dog at 0.5 mg/kg, iv. The data set is classed as ADME, organism-based, Canis lupus familiaris. Particulars: in vivo, read-out: Vdss.
Data set [14] in a line: Clearance in Beagle dog at 0.5 mg/kg, iv. It counts as ADME, organism-based, Canis lupus familiaris. As to conditions: in vivo.
Data set [15] is described as follows: AUC in Beagle dog at 3 mg/kg, po. It counts as ADME, organism-based, Canis lupus familiaris. Particulars: in vivo.
Data set [16] deals with T2, Cytochrome P450 2C19. In words: Time dependent inhibition of CYP2C19 in human liver microsomes assessed as substrate AUC shift. On the set-up: scale not given: the % may be the effect or the level left. It counts as ADME. In general terms: Liver microsomes are a subcellular fraction often used to study metabolism.
For data set [17], the target named is T5, Cytochrome P450 3A4. Briefly: Reversible inhibition of CYP3A4 in human liver microsomes using midazolam as substrate in presence of NADPH by LC-MS/MS analysis. The data set is classed as ADME.
Data set [18] in a line: Volume of distribution at steady state in Sprague-Dawley rat at 1 mg/kg, iv. It counts as ADME, organism-based. As to conditions: in vivo, read-out: Vdss.
Data set [19] is described as follows: Apparent permeability from apical to basolateral side in MDCK cells at 10 uM by LC/MS/MS analysis. It counts as ADME, cell-based, Canis lupus familiaris. Particulars: dog.
Data set [20] can be described thus: Clearance in Sprague-Dawley rat at 1 mg/kg, iv. It counts as ADME, organism-based. Particulars: in vivo.
In data set [21] the target is T5, Cytochrome P450 3A4. In words: Reversible inhibition of CYP3A4 in human liver microsomes using testosterone as substrate in presence of NADPH by LC-MS/MS analysis. It counts as ADME.
The subject of data set [22] is Mus musculus. In words: Toxicity in nude NCR mouse xenografted with human HT1080 cells assessed as change in body weight at 25 to 50 mg/kg administered via oral gavage twice per day for 5 consecutive days measured up to 20 days. It counts as organism-based, HT-1080. As to conditions: in vivo, 480 h. (A xenograft is tissue or cells of one species grown in another, often human tumour cells in immunodeficient mice.)

A short description of data set [23]: Octanol-aqueous phosphate buffer distribution coefficient, log D of the compound at pH 7.4 after 1 hr by LC/MS/MS analysis. It counts as physicochemical.
Data set [24] in a line: Half life in Sprague-Dawley rat at 1 mg/kg, iv. It counts as ADME, organism-based. As to conditions: in vivo.
A short description of data set [25]: Oral bioavailability in Beagle dog at 3 mg/kg. It counts as ADME, organism-based, Canis lupus familiaris. Particulars: in vivo.
Data set [26] relates to HT-1080. Briefly: Antitumor activity against human HT1080 cells xenografted in nude NCR mouse assessed as tumor growth inhibition at 25 to 50 mg/kg administered via oral gavage twice per day for 5 consecutive days measured up to 20 days. The data set is classed as functional, organism-based.
Data set [27] is described as follows: Oral bioavailability in Sprague-Dawley rat at 5 mg/kg. It counts as ADME, organism-based. As to conditions: in vivo.
The target of data set [28] is T1, Cytochrome P450 2D6. In words: Reversible inhibition of CYP2D6 in human liver microsomes using […] as substrate in presence of NADPH by LC-MS/MS analysis. The data set is classed as ADME.
Data set [29] concerns the target T4, Cytochrome P450 2C9. Briefly: Time dependent inhibition of CYP2C9 in human liver microsomes assessed as substrate AUC shift. More on the design: scale not given: the % may be the effect or the level left. It counts as ADME.
Data set [30] can be described thus: Protein binding in human plasma at 5 uM after 4 hrs by rapid equilibrium dialysis based LC-MS/MS analysis. The data set is classed as ADME, cell-free. As to conditions: read-out: PPB (converted).
A short description of data set [31]: Cmax in Sprague-Dawley rat at 5 mg/kg, po. The data set is classed as ADME, organism-based. More on the design: dose 5 mg/kg, route oral. Particulars: in vivo.
Data set [32] can be described thus: Protein binding in dog plasma at 5 uM after 4 hrs by rapid equilibrium dialysis based LC-MS/MS analysis. The data set is classed as ADME, cell-free, Canis lupus familiaris. Particulars: read-out: PPB (converted). (In equilibrium dialysis free small molecules cross a membrane that holds back macromolecules.)
The nature of data set [33]: Time at which plasma concentration stays above plasma protein binding corrected human HT1080 cells IC50 in nude NCR mouse at 25 mg/kg, po bid administered via gavage. As to conditions: in vivo. The data set is classed as ADME, organism-based, HT-1080.
Data set [34] in a line: AUC in Sprague-Dawley rat at 5 mg/kg, po. It counts as ADME, organism-based. As to conditions: in vivo.
Data set [35] has as its target T5, Cytochrome P450 3A4. Briefly: Time dependent inhibition of CYP3A4 in human liver microsomes assessed as substrate AUC shift using midazolam as substrate. It counts as ADME. On the set-up: scale not given: the % may be the effect or the level left.
The nature of data set [36]: Kinetic solubility of the compound in PBS at 200 uM at pH 7.4 after 24 hrs by liquid chromatography-chemiluminescence nitrogen detection assay. It counts as physicochemical. Particulars: read-out: Kinetic_solubility.
In data set [37] the target is T3, Cytochrome P450 1A2. Briefly: Reversible inhibition of CYP1A2 in human liver microsomes using […] as substrate in presence of NADPH by LC-MS/MS analysis. The data set is classed as ADME.
A short description of data set [38]: Apparent permeability from basolateral to apical side in MDCK cells at 10 uM by LC/MS/MS analysis. The data set is classed as ADME, cell-based, Canis lupus familiaris. As to conditions: dog.
A short description of data set [39]: Half life in Beagle dog at 0.5 mg/kg, iv. The data set is classed as ADME, organism-based, Canis lupus familiaris. Particulars: in vivo.
The target of data set [40] is T1, Cytochrome P450 2D6. In words: Time dependent inhibition of CYP2D6 in human liver microsomes assessed as substrate AUC shift. The data set is classed as ADME. More on the design: scale not given: the % may be the effect or the level left.
Data set [41] is described as follows: Cmax in Beagle dog at 3 mg/kg, po. The data set is classed as ADME, organism-based, Canis lupus familiaris. On the set-up: dose 3 mg/kg, route oral. As to conditions: in vivo.
A short description of data set [42]: Protein binding in rat plasma at 5 uM after 4 hrs by rapid equilibrium dialysis based LC-MS/MS analysis. The data set is classed as ADME, cell-free. As to conditions: read-out: PPB (converted).
Data set [43] concerns the target T2, Cytochrome P450 2C19. Briefly: Reversible inhibition of CYP2C19 in human liver microsomes using […] as substrate in presence of NADPH by LC-MS/MS analysis. It counts as ADME.
A short description of data set [44]: Protein binding in cynomolgus monkey plasma at 5 uM after 4 hrs by rapid equilibrium dialysis based LC-MS/MS analysis. The data set is classed as ADME, cell-free, Macaca fascicularis. As to conditions: read-out: PPB (converted).

T5 sequence (P08684 whole entry): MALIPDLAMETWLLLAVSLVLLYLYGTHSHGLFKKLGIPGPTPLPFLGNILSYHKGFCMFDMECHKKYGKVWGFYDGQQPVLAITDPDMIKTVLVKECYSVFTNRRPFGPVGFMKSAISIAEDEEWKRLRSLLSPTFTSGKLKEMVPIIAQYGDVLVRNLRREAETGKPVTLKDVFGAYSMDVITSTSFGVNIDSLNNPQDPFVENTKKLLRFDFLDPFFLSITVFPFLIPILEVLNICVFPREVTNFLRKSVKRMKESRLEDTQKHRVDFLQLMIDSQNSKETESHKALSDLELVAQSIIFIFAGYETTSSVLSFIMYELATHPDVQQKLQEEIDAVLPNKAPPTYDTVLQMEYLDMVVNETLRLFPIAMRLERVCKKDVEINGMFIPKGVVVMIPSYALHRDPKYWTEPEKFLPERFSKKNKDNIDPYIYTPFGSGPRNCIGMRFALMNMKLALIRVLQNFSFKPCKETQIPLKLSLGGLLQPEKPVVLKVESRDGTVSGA
T1 sequence (P10635 whole entry): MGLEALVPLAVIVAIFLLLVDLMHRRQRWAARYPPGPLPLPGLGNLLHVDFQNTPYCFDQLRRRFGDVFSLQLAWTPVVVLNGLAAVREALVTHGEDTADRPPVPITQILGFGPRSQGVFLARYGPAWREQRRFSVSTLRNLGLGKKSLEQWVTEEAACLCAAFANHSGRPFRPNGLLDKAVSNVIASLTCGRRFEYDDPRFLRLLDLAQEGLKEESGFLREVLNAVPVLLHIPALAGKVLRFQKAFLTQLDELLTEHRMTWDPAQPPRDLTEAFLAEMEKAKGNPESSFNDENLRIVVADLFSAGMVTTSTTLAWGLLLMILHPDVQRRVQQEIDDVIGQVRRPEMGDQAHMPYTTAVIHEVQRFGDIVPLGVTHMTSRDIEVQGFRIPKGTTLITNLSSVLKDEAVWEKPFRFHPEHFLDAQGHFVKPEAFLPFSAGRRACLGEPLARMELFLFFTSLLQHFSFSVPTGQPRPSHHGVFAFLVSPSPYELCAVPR
T2 sequence (P33261 whole entry): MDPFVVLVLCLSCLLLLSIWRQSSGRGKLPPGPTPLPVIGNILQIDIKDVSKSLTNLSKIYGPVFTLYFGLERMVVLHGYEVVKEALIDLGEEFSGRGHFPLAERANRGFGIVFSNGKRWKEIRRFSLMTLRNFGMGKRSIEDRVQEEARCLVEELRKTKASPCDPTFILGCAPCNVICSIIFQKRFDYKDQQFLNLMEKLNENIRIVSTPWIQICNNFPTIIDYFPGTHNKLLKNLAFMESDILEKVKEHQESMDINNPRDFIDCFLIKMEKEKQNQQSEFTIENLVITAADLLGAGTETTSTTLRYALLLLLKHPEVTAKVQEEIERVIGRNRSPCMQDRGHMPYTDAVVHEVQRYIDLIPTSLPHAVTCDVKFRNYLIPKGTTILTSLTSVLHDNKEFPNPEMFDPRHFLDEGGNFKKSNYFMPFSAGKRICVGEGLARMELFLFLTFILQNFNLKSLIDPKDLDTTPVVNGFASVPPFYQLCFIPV
T4 sequence (P11712 whole entry): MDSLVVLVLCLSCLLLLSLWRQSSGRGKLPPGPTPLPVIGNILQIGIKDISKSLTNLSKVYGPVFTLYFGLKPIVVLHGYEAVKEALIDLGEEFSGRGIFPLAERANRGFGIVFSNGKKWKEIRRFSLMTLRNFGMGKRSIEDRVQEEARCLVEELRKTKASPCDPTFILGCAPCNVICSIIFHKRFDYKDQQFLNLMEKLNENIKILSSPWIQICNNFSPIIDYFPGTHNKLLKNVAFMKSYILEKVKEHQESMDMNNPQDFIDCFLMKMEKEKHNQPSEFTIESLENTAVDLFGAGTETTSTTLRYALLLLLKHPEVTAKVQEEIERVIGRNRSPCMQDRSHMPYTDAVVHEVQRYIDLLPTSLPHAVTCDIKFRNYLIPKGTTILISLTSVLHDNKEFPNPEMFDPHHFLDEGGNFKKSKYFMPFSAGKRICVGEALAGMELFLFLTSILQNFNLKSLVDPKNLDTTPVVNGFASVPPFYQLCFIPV

By IC50 is commonly meant the midpoint of a concentration-inhibition curve. Take `O=C(NCc1ccc(S(=O)(=O)c2cccc(C(F)(F)F)c2)cc1)c1cnc2[nH]ncc2c1`: the IC50 was more than 10 µM in [1]; 6.5 µM in data set [2]; more than 10 µM in data set [3]; 4.8 µM in data set [4]; 7.9 µM in data set [5]; 0.07 µM in data set [6]. In data set [7], this compound gave an IC50 of 9 µM.
By clearance is commonly meant the rate of elimination divided by the concentration. For orientation: AUC means concentration integrated over time. The term Papp A→B denotes the apparent permeability from the apical to the basolateral side of a cell layer. For orientation: logD means the decadic logarithm of the distribution of all forms, ionised or not, between an organic phase and buffer at a given pH. As a reminder, the half-life is the time needed for the level to fall by half in the phase considered. By bioavailability is commonly meant dose-corrected exposure relative to a reference, in per cent. What is called Cmax is the highest concentration seen after dosing. The term Papp B→A denotes the apparent permeability from the basolateral to the apical side of a cell layer. For `CC1(OC(=O)N2CCC3(CC2)C[C@@H]3CNC(=O)N2Cc3ccncc3C2)COC1`, the solubility thermodynamic at 24 h in data set [8] was more than 6 mM. Further, in [9], the result was Active. In addition, the Activity in [10] is recorded as less than 15%; in data set [11], less than 15%; in data set [16], less than 15%; in data set [22], “Non-Toxic”; in [29], less than 15%; in [35], less than 15%. In addition, in data set [40], the Activity is less than 15%. Also, the fraction unbound at 4 h, 5 µM in data set [12] is 0.47; in [30] it was 0.44; in [32], 0.34; in [42], 0.44; in [44], 0.46. For the same compound, the Vd in data set [13] came to 0.8 L/kg; in data set [18], 9 L/kg. Moreover, the clearance in [14] was determined as 10.8 mL/min/kg; in data set [20], 110 mL/min/kg. Further, the AUC worked out at 10.5 µM·h in [15] and 0.55 µM·h in data set [34]. The IC50 in [17], in data set [21], in data set [28], in [37], in data set [6] and in data set [43] was more than 10 µM each time. In addition, the Papp A→B at 10 µM in data set [19] is 8.8 ×10⁻⁶ cm/s. In [23], this compound yielded a logD at 1 h of 1.2. Besides, the values for the half-life in data set [24] and in data set [39] were 1.4 h and 1.2 h, respectively. Moreover, the bioavailability in [25] came out at 86%; in data set [27] it was 29%. Further, the TGI result in data set [26] was “Active”. The results for the Cmax in [31] and in data set [41] were 640 nM and 4800 nM, respectively. Further, the Time in [33] was 20 h. Moreover, the solubility kinetic at 24 h, 200 µM in data set [36] is more than 0.1 mM. Further, the Papp B→A at 10 µM in [38] worked out at 12 ×10⁻⁶ cm/s.

The values are drawn from ChEMBL document CHEMBL3865840, “Minimizing CYP2C9 Inhibition of Exposed-Pyridine NAMPT (Nicotinamide Phosphoribosyltransferase) Inhibitors” (J Med Chem, 2016).
